Our source for the EC50 and Emax values is patent US9642831B2, “Substituted chromanes and method of use” (AbbVie S.á.r.l., priority 2014, dated 2017).

The target in the assay is F508delCFTR (Homo sapiens, UniProt P13569, DEL508-508). Nature of the assay: Cell Surface Expression-Horse Radish Peroxidase (CSE-HRP) assay. Further details: expressed in transfected cells; host or cells: CFBE41o- human lung derived epithelial cell line, doxycycline-inducible. Particulars: CFBE4lo-F508delCFTR-HRP cells; for EC50: 18-24 hours at 33° C., 8-point curve, highest concentration 20 μM, luminescence readout; for Emax: maximum % activity at any tested concentration, normalized to on-plate positive control (3 μM Example 1). In kind it is cell-based. The method in brief: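 Following 18-24 h compound exposure at 33° C. Expression was doxycycline-induced beforehand. % activity versus DMSO and a 3 μM corrector control gave maximum activity and EC50 from a variable-Hill sigmoidal fit.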
F508delCFTR, sequence (P13569 with tags, fused parts or gaps DEL508-508): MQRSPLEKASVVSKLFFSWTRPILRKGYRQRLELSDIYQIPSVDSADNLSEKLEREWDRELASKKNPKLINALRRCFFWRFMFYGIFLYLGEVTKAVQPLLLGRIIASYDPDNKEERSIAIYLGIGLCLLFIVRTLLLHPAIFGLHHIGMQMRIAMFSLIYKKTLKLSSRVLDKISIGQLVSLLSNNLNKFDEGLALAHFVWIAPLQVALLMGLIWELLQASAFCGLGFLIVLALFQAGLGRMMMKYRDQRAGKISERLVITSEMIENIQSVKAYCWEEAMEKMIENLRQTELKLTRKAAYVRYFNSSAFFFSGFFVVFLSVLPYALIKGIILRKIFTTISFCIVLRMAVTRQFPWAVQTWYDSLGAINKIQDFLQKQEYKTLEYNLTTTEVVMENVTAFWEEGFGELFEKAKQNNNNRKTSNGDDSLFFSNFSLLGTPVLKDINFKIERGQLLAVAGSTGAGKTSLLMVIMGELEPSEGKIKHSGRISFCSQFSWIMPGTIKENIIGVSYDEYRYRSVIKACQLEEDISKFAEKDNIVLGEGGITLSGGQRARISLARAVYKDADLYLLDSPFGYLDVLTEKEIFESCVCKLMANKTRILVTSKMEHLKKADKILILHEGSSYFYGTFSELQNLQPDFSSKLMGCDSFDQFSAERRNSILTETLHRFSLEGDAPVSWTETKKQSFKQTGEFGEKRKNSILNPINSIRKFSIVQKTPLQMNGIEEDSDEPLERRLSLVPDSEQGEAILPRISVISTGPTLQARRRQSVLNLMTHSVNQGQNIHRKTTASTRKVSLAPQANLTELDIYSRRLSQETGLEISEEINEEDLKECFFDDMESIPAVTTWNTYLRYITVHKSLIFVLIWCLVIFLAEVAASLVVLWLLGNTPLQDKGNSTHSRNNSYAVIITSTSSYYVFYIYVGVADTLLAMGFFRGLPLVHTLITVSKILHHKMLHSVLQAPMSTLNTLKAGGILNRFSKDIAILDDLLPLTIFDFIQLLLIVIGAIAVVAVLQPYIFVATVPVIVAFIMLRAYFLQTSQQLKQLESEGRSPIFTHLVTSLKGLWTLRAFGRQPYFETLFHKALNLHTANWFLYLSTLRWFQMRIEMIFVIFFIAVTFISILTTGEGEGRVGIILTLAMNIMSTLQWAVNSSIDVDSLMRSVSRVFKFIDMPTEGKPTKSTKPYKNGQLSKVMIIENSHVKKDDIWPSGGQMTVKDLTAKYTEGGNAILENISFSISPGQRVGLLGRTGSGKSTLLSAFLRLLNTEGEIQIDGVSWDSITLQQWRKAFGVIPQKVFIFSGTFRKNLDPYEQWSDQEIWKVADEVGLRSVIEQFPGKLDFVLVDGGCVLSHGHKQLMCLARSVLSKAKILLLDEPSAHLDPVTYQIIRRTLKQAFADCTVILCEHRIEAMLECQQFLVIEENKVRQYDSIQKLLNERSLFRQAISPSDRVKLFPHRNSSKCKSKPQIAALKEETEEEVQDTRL

The EC50 is the concentration that produces a half-maximal response. A higher EC50 goes with lower potency in that assay. A word on the Emax: it is the maximal effect, on the per cent scale that the assay sets. Consider `Cc1ccc2c(c1)[C@@H](NC(=O)C1(c3ccc4c(c3)OC(F)(F)O4)CC1)C[C@H](c1cccc(C(=O)O)c1)O2` [Example 13, 3-[(2R,4S)-4-({[1-(2,2-difluoro-1,3-benzodioxol-5-yl)cyclopropyl]carbonyl}amino)-6-methyl-3,4-dihydro-2H-chromen-2-yl]benzoic acid], for which the response was half-maximal at 4570 nM (EC50) and the Emax came out at 118%.
The corresponding values for `Cc1ccc2c(c1)O[C@@H](c1cccc(C(=O)O)c1)C[C@@H]2NC(=O)C1(c2ccc3c(c2)OC(F)(F)O3)CC1` [Example 15, 3-[(2R,4S)-4-({[1-(2,2-difluoro-1,3-benzodioxol-5-yl)cyclopropyl]carbonyl}amino)-7-methyl-3,4-dihydro-2H-chromen-2-yl]benzoic acid] are 2470 nM and 101%.
The corresponding values for `Cc1ccc2c(c1)O[C@@H](c1cccc(C(=O)O)c1)C[C@H]2NC(=O)C1(c2ccc3c(c2)OC(F)(F)O3)CC1` [Example 16, 3-[(2R,4R)-4-({[1-(2,2-difluoro-1,3-benzodioxol-5-yl)cyclopropyl]carbonyl}amino)-7-methyl-3,4-dihydro-2H-chromen-2-yl]benzoic acid] are 370 nM and 108%.
Turning to `COC(=O)c1cccc([C@H]2C[C@H](NC(=O)C3(c4ccc5c(c4)OC(F)(F)O5)CC3)c3ccc(C)cc3O2)c1` [Example 17, methyl 3-[(2R,4S)-4-({[1-(2,2-difluoro-1,3-benzodioxol-5-yl)cyclopropyl]carbonyl}amino)-7-methyl-3,4-dihydro-2H-chromen-2-yl]benzoate], the EC50 came to 2640 nM and the Emax amounted to 78%.
The corresponding values for `COC(=O)c1cccc([C@H]2C[C@@H](NC(=O)C3(c4ccc5c(c4)OC(F)(F)O5)CC3)c3ccc(C)cc3O2)c1` [Example 18, methyl 3-[(2R,4R)-4-({[1-(2,2-difluoro-1,3-benzodioxol-5-yl)cyclopropyl]carbonyl}amino)-7-methyl-3,4-dihydro-2H-chromen-2-yl]benzoate] are 350 nM and 113%.
The corresponding values for `COc1cccc([C@H]2C[C@@H](NC(=O)C3(c4ccc5c(c4)OC(F)(F)O5)CC3)c3ccc(O)cc3O2)c1` [Example 20, 1-(2,2-difluoro-1,3-benzodioxol-5-yl)-N-[(2R,4R)-7-hydroxy-2-(3-methoxyphenyl)-3,4-dihydro-2H-chromen-4-yl]cyclopropanecarboxamide] are 4620 nM and 30%.
The corresponding values for `COC(=O)c1cccc([C@H]2C[C@@H](NC(=O)C3(c4ccc5c(c4)OC(F)(F)O5)CC3)c3cc(OC)ccc3O2)c1` [Example 21, methyl 3-[(2R,4R)-4-({[1-(2,2-difluoro-1,3-benzodioxol-5-yl)cyclopropyl]carbonyl}amino)-6-methoxy-3,4-dihydro-2H-chromen-2-yl]benzoate] are 800 nM and 142%.
`O=C(O)c1cccc([C@H]2C[C@@H](NC(=O)C3(c4ccc5c(c4)OC(F)(F)O5)CC3)c3ccc(O)cc3O2)c1` [Example 23, 3-[(2R,4R)-4-({[1-(2,2-difluoro-1,3-benzodioxol-5-yl)cyclopropyl]carbonyl}amino)-7-hydroxy-3,4-dihydro-2H-chromen-2-yl]benzoic acid] returned an EC50 of no less than 20000 nM and an Emax of 12%.
The corresponding values for `COc1ccc2c(c1)O[C@@H](C1CCCC(C(=O)O)C1)C[C@H]2NC(=O)C1(c2ccc3c(c2)OC(F)(F)O3)CC1` (stereo partly drawn) [Example 35, 3-[(2R,4R)-4-({[1-(2,2-difluoro-1,3-benzodioxol-5-yl)cyclopropyl]carbonyl}amino)-7-methoxy-3,4-dihydro-2H-chromen-2-yl]cyclohexanecarboxylic acid] are 1160 nM and 82%.
Consider `O=C(O)C1CCCC([C@H]2C[C@@H](NC(=O)C3(c4ccc5c(c4)OC(F)(F)O5)CC3)c3ccc(F)cc3O2)C1` (stereo partly drawn) [Example 36, 3-[(2R,4R)-4-({[1-(2,2-difluoro-1,3-benzodioxol-5-yl)cyclopropyl]carbonyl}amino)-7-fluoro-3,4-dihydro-2H-chromen-2-yl]cyclohexanecarboxylic acid], for which the EC50 amounted to 1820 nM and the Emax came out at 78%.
`COC(=O)c1cccc([C@H]2C[C@@H](NC(=O)C3(c4ccc5c(c4)OC(F)(F)O5)CC3)c3ccc(F)cc3O2)c1` [Example 39, methyl 3-[(2R,4R)-4-({[1-(2,2-difluoro-1,3-benzodioxol-5-yl)cyclopropyl]carbonyl}amino)-7-fluoro-3,4-dihydro-2H-chromen-2-yl]benzoate] returned an EC50 of 1720 nM and an Emax of 82%.
The corresponding values for `O=C(O)c1ccc2c(c1)OCCC2NC(=O)C1(c2ccc3c(c2)OC(F)(F)O3)CC1` (centres unmarked) [Example 42, 4-({[1-(2,2-difluoro-1,3-benzodioxol-5-yl)cyclopropyl]carbonyl}amino)-3,4-dihydro-2H-chromene-7-carboxylic acid] are no less than 20000 nM and 5%.
The corresponding values for `Cc1ccc2c(c1)O[C@@H](c1cccc(C(=O)NC3CCC(C)(C(=O)O)C3)c1)C[C@H]2NC(=O)C1(c2ccc3c(c2)OC(F)(F)O3)CC1` (stereo partly drawn) [Example 43, 3-({3-[(2R,4R)-4-({[1-(2,2-difluoro-1,3-benzodioxol-5-yl)cyclopropyl]carbonyl}amino)-7-methyl-3,4-dihydro-2H-chromen-2-yl]benzoyl}amino)-1-methylcyclopentanecarboxylic acid] are 850 nM and 78%.
The corresponding values for `COc1cccc([C@H]2C[C@@H](NC(=O)C3(c4ccc5c(c4)OC(F)(F)O5)CC3)c3cc(C(=O)O)ccc3O2)c1` [Example 44, (2R,4R)-4-({[1-(2,2-difluoro-1,3-benzodioxol-5-yl)cyclopropyl]carbonyl}amino)-2-(3-methoxyphenyl)-3,4-dihydro-2H-chromene-6-carboxylic acid] are no less than 20000 nM and 14%.
`COC(=O)c1ccc2c(c1)OCCC2NC(=O)C1(c2ccc3c(c2)OC(F)(F)O3)CC1` (centres unmarked) [Example 45, methyl 4-({[1-(2,2-difluoro-1,3-benzodioxol-5-yl)cyclopropyl]carbonyl}amino)-3,4-dihydro-2H-chromene-7-carboxylate] displayed an EC50 of 1330 nM and an Emax of 89%.
The corresponding values for `COC(=O)c1ccc2c(c1)[C@H](NC(=O)C1(c3ccc4c(c3)OC(F)(F)O4)CC1)C[C@H](C1CCCC(OC)C1)O2` (stereo partly drawn) [Example 46, methyl (2R,4R)-4-({[1-(2,2-difluoro-1,3-benzodioxol-5-yl)cyclopropyl]carbonyl}amino)-2-(3-methoxycyclohexyl)-3,4-dihydro-2H-chromene-6-carboxylate] are 5140 nM and 27%.
`COC(=O)c1ccc2c(c1)[C@H](NC(=O)C1(c3ccc4c(c3)OC(F)(F)O4)CC1)C[C@H](c1cccc(OC)c1)O2` [Example 47, methyl (2R,4R)-4-({[1-(2,2-difluoro-1,3-benzodioxol-5-yl)cyclopropyl]carbonyl}amino)-2-(3-methoxyphenyl)-3,4-dihydro-2H-chromene-6-carboxylate] returned an EC50 of 4000 nM and an Emax of 43%.
The corresponding values for `Cc1ccc2c(c1)O[C@@H](c1cccc(C(=O)NC[C@@H](O)CO)c1)C[C@H]2NC(=O)C1(c2ccc3c(c2)OC(F)(F)O3)CC1` [Example 48, 3-[(2R,4R)-4-({[1-(2,2-difluoro-1,3-benzodioxol-5-yl)cyclopropyl]carbonyl}amino)-7-methyl-3,4-dihydro-2H-chromen-2-yl]-N-[(2R)-2,3-dihydroxypropyl]benzamide] are 1000 nM and 104%.
The corresponding values for `Cc1ccc2c(c1)O[C@@H](c1cccc(C(=O)N3CC[C@@H](O)C3)c1)C[C@H]2NC(=O)C1(c2ccc3c(c2)OC(F)(F)O3)CC1` [Example 49, 1-(2,2-difluoro-1,3-benzodioxol-5-yl)-N-[(2R,4R)-2-(3-{[(3R)-3-hydroxypyrrolidin-1-yl]carbonyl}phenyl)-7-methyl-3,4-dihydro-2H-chromen-4-yl]cyclopropanecarboxamide] are 970 nM and 105%.
The corresponding values for `Cc1ccc2c(c1)O[C@@H](c1cccc(C(=O)NCC(O)C(F)(F)F)c1)C[C@H]2NC(=O)C1(c2ccc3c(c2)OC(F)(F)O3)CC1` (stereo partly drawn) [Example 50, 3-[(2R,4R)-4-({[1-(2,2-difluoro-1,3-benzodioxol-5-yl)cyclopropyl]carbonyl}amino)-7-methyl-3,4-dihydro-2H-chromen-2-yl]-N-(3,3,3-trifluoro-2-hydroxypropyl)benzamide] are 860 nM and 101%.
Molecule `Cc1ccc2c(c1)O[C@@H](c1cccc(C(=O)NCC(C)(C)O)c1)C[C@H]2NC(=O)C1(c2ccc3c(c2)OC(F)(F)O3)CC1` [Example 51, 3-[(2R,4R)-4-({[1-(2,2-difluoro-1,3-benzodioxol-5-yl)cyclopropyl]carbonyl}amino)-7-methyl-3,4-dihydro-2H-chromen-2-yl]-N-(2-hydroxy-2-methylpropyl)benzamide] yielded an EC50 of 970 nM and an Emax of 83%.
The corresponding values for `Cc1ccc2c(c1)O[C@@H](c1cccc(C(=O)N3CCCC(CO)C3)c1)C[C@H]2NC(=O)C1(c2ccc3c(c2)OC(F)(F)O3)CC1` (stereo partly drawn) [Example 52, 1-(2,2-difluoro-1,3-benzodioxol-5-yl)-N-[(2R,4R)-2-(3-{[3-(hydroxymethyl)piperidin-1-yl]carbonyl}phenyl)-7-methyl-3,4-dihydro-2H-chromen-4-yl]cyclopropanecarboxamide] are 1010 nM and 93%.
